Assay results: US9630929B2, “Benzenesulfonamide compounds and their use as therapeutic agents” (XENON PHARMACEUTICALS INC., priority 2011, dated 2017)

Columns and labels:
[1] = biological target: T1, NaV1.7 (Homo sapiens (Human), UniProt Q15858); assay: NaV flux assay, inhibition of NaV1.7; format: cell-based; conditions: NaV flux data, included when EP data is not available
[2] = biological target: T1, NaV1.7; assay: Patch voltage clamp electrophysiology (EP), affinity for the inactivated state of Nav1.7; format: cell-based; conditions: HEK-293 cells expressing human Nav1.7 with β1 subunit
Protocol: The following patch voltage clamp electrophysiology studies were performed on representative compounds of the invention using human embryonic kidney cells (HEK), permanently transfected with an expression vector containing the full-length cDNA coding for the desired human sodium channel α-subunit, grown in culture media containing 10% FBS, 1% PSG, and 0.5 mg/mL G418 at 37° C. with 5% CO2. […] Nav1.7 and Nav1.5 cDNAs (NM_002977 and AC137587; SCN5A, respectively) were stably expressed in HEK-293 cells. The β1 subunit was coexpressed only in the Nav1.7 cell line.
Sodium currents were measured using the patch clamp technique in the whole-cell configuration using either a PatchXpress automated voltage clamp or manually using an Axopatch 200B (Axon Instruments) or Model 2400 (A-M systems) amplifier. […] The pipette was filled with a solution comprised of: 5 mM NaCl, 10 mM CsCl, 120 mM CsF, 0.1 mM CaCl2, 2 mM MgCl2, 10 mM HEPES, 10 mM EGTA; and adjusted to pH 7.2 with CsOH. The external solution had the following composition: 140 mM NaCl, 5 mM KCl, 2 mM CaCl2, 1 mM MgCl2, 10 mM HEPES; and adjusted to pH 7.4 with NaOH. In some studies, the external sodium was reduced by equimolar replacement with choline. Osmolarity in the CsF internal and NaCl external solutions was adjusted to 300 mOsm/kg and 310 mOsm/kg with glucose, respectively. All recordings were performed at ambient temperature in a bath chamber with a volume of 150 μL. Control sodium currents were measured in 0.5% DMSO. Controls and representative compounds of the invention were applied to the recording chamber through a 4-pinch or 8-pinch valve bath perfusion system manufactured by ALA Scientific Instruments.
Series resistance compensation was applied (60-80%). […] All statistics in this study are given as mean±SD.
The membrane potential was maintained at a voltage where inactivation of the channel is complete (which was −60 mV for both Nav1.7 and Nav1.5). The voltage is then stepped back to a very negative (Vhold=−150 mV) voltage for 20 ms and then a test pulse is applied to quantify the compound block. […] The percent decrease in sodium current following wash-on of compound was taken as the percent block of sodium channels.
The Example numbers provided in Table 1 and Table 2 correspond to the Examples herein: […]

T1 sequence (Q15858 other isoform, or with tags, fused parts or gaps): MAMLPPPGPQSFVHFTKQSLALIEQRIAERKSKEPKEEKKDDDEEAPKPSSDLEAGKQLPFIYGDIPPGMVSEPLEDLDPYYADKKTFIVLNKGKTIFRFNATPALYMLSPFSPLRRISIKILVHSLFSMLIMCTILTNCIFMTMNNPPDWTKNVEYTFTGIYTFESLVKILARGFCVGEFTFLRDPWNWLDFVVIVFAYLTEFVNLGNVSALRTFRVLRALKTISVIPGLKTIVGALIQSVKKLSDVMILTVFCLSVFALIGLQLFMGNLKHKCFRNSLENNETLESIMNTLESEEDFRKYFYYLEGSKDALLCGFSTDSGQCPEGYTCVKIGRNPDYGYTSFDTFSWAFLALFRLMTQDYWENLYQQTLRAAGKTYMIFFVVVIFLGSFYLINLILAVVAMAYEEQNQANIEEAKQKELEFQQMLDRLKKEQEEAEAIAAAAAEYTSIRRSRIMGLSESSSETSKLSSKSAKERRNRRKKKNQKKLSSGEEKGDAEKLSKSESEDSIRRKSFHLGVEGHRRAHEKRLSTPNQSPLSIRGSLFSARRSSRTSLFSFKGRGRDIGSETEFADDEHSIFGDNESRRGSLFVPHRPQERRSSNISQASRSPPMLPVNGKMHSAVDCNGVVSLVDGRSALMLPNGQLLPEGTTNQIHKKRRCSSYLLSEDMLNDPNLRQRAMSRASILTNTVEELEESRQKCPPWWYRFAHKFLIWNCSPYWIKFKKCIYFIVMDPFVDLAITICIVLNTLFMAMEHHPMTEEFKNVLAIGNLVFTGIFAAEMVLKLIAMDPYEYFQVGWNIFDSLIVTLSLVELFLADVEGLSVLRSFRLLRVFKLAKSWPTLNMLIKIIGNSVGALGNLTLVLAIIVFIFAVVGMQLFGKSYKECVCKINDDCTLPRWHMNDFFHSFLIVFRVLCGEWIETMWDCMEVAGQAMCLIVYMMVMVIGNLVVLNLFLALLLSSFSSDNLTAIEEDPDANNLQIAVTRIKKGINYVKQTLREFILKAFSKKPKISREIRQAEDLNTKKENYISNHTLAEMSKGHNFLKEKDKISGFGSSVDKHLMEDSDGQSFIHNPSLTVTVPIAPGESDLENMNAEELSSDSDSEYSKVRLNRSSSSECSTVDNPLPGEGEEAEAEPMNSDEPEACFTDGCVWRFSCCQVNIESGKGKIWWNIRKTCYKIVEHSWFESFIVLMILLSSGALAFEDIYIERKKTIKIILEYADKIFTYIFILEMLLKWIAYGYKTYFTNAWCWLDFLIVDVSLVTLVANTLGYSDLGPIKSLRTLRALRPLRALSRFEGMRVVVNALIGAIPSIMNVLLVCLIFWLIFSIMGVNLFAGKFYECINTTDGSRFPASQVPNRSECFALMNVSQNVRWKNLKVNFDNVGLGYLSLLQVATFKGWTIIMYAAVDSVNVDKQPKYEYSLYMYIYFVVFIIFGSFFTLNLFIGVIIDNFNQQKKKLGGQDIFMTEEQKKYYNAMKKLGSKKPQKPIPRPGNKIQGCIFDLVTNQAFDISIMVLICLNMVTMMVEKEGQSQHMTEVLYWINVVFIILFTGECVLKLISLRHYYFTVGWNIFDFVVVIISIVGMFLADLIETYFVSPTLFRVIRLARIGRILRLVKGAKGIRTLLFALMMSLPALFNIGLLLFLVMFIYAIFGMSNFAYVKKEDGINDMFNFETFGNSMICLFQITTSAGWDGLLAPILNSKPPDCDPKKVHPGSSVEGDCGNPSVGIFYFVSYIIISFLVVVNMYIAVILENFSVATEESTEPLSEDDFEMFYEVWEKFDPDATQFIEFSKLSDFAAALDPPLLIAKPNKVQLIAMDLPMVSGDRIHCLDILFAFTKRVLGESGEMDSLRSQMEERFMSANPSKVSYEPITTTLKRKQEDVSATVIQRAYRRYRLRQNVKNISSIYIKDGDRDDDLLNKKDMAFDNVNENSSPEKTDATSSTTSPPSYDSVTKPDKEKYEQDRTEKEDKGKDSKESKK
T1 sequence (Q07699 19-218 partner): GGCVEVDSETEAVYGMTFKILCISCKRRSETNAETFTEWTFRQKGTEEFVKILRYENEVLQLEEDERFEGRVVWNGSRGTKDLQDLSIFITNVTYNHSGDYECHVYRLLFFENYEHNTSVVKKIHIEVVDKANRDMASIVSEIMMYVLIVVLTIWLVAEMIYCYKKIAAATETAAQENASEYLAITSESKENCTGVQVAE

IC50 [1] [nM]	IC50 ([2]; read-out: NaV1.7 (IC50 class)) [nM]	IC50 ([2]; read-out: NaV1.7 IC50) [nM]	SMILES
> 10000	–	–	N#Cc1cc(S(=O)(=O)NC2(C#N)CC2)ccc1OC[C@@H]1CNCC[C@H]1c1ccc(Cl)cc1 (relative stereo) [Example 91, 4-((trans-4-(4-chlorophenyl)piperidin-3-yl)methoxy)-3-cyano-N-(1-cyanocyclopropyl)benzenesulfonamide]
–	< 100	–	O=S(=O)(Nc1ncns1)c1cc(F)c(OC[C@@H]2CNCC[C@H]2c2ccc(Cl)cc2)cc1F [Example 84, 4-(((3S,4R)-4-(4-chlorophenyl)piperidin-3-yl)methoxy)-2,5-difluoro-N-(1,2,4-thiadiazol-5-yl)benzenesulfonamide]
> 10000	–	–	O=C(NS(=O)(=O)c1cc(F)c(OC[C@@H]2CNCC[C@H]2c2ccc(Cl)cc2)cc1F)c1cccnc1 (relative stereo) [Example 103, N-((4-((trans-4-(4-chlorophenyl)piperidin-3-yl)methoxy)-2,5-difluorophenyl)sulfonyl)nicotinamide]
–	< 100	1.1	O=S(=O)(Nc1ncns1)c1cc(F)c(OC[C@H]2CNCC[C@@H]2c2ccc(Cl)cc2)cc1F [Example 77, 4-(((3R,4S)-4-(4-chlorophenyl)piperidin-3-yl)methoxy)-2,5-difluoro-N-(1,2,4-thiadiazol-5-yl)benzenesulfonamide]
–	< 100	84.4	O=S(=O)(Nc1nncs1)c1cc(F)c(OC[C@@H]2CNCC[C@H]2c2ccc(Cl)cc2)cc1F (relative stereo) [Example 51, 4-((trans-4-(4-chlorophenyl)piperidin-3-yl)methoxy)-2,5-difluoro-N-(1,3,4-thiadiazol-2-yl)benzenesulfonamide]
–	1000 to 10000	1890	Cc1cc(NS(=O)(=O)c2cc(F)c(OC[C@@H]3CNCC[C@H]3c3ccc(Cl)cc3)cc2F)no1 (relative stereo) [Example 56, 4-((trans-4-(4-chlorophenyl)piperidin-3-yl)methoxy)-2,5-difluoro-N-(5-methylisoxazol-3-yl)benzenesulfonamide]
–	< 100	–	O=S(=O)(Nc1ncns1)c1cc(F)c(OC[C@@H]2CNCC[C@H]2c2ccc(Cl)cc2)cc1F (relative stereo) [Example 44, 4-((trans-4-(4-chlorophenyl)piperidin-3-yl)methoxy)-2,5-difluoro-N-(1,2,4-thiadiazol-5-yl)benzenesulfonamide]
–	100 to 1000	323	O=S(=O)(Nc1ncccn1)c1cc(F)c(OC[C@@H]2CNCC[C@H]2c2ccc(F)cc2)cc1F (relative stereo) [Example 50, 2,5-difluoro-4-((trans-4-(4-fluorophenyl)piperidin-3-yl)methoxy)-N-(pyrimidin-2-yl)benzenesulfonamide]
4490	–	–	O=C1C[C@@H](c2cc(F)c(F)cc2F)[C@H](COc2cc(F)c(S(=O)(=O)Nc3ncns3)cc2F)CN1 (relative stereo) [Example 101, 2,5-difluoro-4-((trans-6-oxo-4-(2,4,5-trifluorophenyl)piperidin-3-yl)methoxy)-N-(1,2,4-thiadiazol-5-yl)benzenesulfonamide]
–	100 to 1000	280	O=S(=O)(Nc1ncns1)c1cc(F)c(OC[C@@H]2CCCC[C@H]2c2ccc(F)cc2)cc1F (relative stereo) [Example 68, 2,5-difluoro-4-((trans-2-(4-fluorophenyl)cyclohexyl)methoxy)-N-(1,2,4-thiadiazol-5-yl)benzenesulfonamide]
–	< 100	93.7	O=S(=O)(Nc1ncns1)c1cc(F)c(OC[C@@H]2CN(CCF)CC[C@H]2c2ccc(Cl)cc2)cc1F (relative stereo) [Example 80, 4-((trans-4-(4-chlorophenyl)-1-(2-fluoroethyl)piperidin-3-yl)methoxy)-2,5-difluoro-N-(1,2,4-thiadiazol-5-yl)benzenesulfonamide]
–	< 100	53.2	O=S(=O)(Nc1ncccn1)c1cc(F)c(OC[C@@H]2CNCC[C@H]2c2ccc(Cl)cc2)cc1F (relative stereo) [Example 49, 4-((trans-4-(4-chlorophenyl)piperidin-3-yl)methoxy)-2,5-difluoro-N-(pyrimidin-2-yl)benzenesulfonamide]
–	< 100	70.5	O=S(=O)(Nc1ccc(F)cn1)c1cc(F)c(OC[C@@H]2CNCC[C@H]2c2ccc(Cl)cc2)cc1F (relative stereo) [Example 63, 4-((trans-4-(4-chlorophenyl)piperidin-3-yl)methoxy)-2,5-difluoro-N-(5-fluoropyridin-2-yl)benzenesulfonamide]
–	–	237	O=S(=O)(Nc1ncns1)c1cc(F)c(OC[C@H]2CNCC[C@H]2c2ccc(Cl)cc2)cc1F (relative stereo) [Example 66, 4-((cis-4-(4-chlorophenyl)piperidin-3-yl)methoxy)-2,5-difluoro-N-(1,2,4-thiadiazol-5-yl)benzenesulfonamide]
–	100 to 1000	928	O=S(=O)(Nc1ncns1)c1cc(F)c(OC[C@@H]2CNCC[C@H]2c2ccc(F)cc2)cc1F [Example 46, 2,5-difluoro-4-(((3S,4R)-4-(4-fluorophenyl)piperidin-3-yl)methoxy)-N-(1,2,4-thiadiazol-5-yl)benzenesulfonamide]
–	100 to 1000	171	O=S(=O)(Nc1cccnn1)c1cc(F)c(OC[C@@H]2CNCC[C@H]2c2ccc(Cl)cc2)cc1F (relative stereo) [Example 65, 4-((trans-4-(4-chlorophenyl)piperidin-3-yl)methoxy)-2,5-difluoro-N-(pyridazin-3-yl)benzenesulfonamide]
–	100 to 1000	116	Cc1cnc(NS(=O)(=O)c2cc(F)c(OC[C@@H]3CNCC[C@H]3c3ccc(Cl)cc3)cc2F)s1 (relative stereo) [Example 57, 4-((trans-4-(4-chlorophenyl)piperidin-3-yl)methoxy)-2,5-difluoro-N-(5-methylthiazol-2-yl)benzenesulfonamide]
–	100 to 1000	164	CC(C)(C)OC(=O)N1CC[C@@H](c2ccc(Cl)cc2)[C@H](COc2cc(F)c(S(=O)(=O)Nc3ncns3)cc2F)C1 (relative stereo) [Example 69, trans-tert-butyl 3-((4-(N-(1,2,4-thiadiazol-5-yl)sulfamoyl)-2,5-difluorophenoxy)methyl)-4-(4-chlorophenyl)piperidine-1-carboxylate]
–	< 100	49.9	O=S(=O)(Nc1ncns1)c1cc(F)c(OC[C@@H]2CNC[C@H]2c2ccc(Cl)cc2)cc1F (relative stereo) [Example 54, 4-((trans-4-(4-chlorophenyl)pyrrolidin-3-yl)methoxy)-2,5-difluoro-N-(1,2,4-thiadiazol-5-yl)benzenesulfonamide]
–	100 to 1000	194	Cc1nsc(NS(=O)(=O)c2cc(F)c(OC[C@@H]3CNCC[C@H]3c3ccc(Cl)cc3)cc2F)n1 (relative stereo) [Example 52, 4-((trans-4-(4-chlorophenyl)piperidin-3-yl)methoxy)-2,5-difluoro-N-(3-methyl-1,2,4-thiadiazol-5-yl)benzenesulfonamide]
–	< 100	31.7	O=S(=O)(Nc1ncns1)c1cc(F)c(OC[C@@H]2CCNC[C@H]2c2ccc(F)cc2)cc1F (relative stereo) [Example 82, 2,5-difluoro-4-((trans-3-(4-fluorophenyl)piperidin-4-yl)methoxy)-N-(1,2,4-thiadiazol-5-yl)benzenesulfonamide]
–	< 100	38.1	O=S(=O)(Nc1ncns1)c1cc(F)c(OC[C@@H]2CN(CC(F)F)CC[C@H]2c2ccc(Cl)cc2)cc1F (relative stereo) [Example 83, 4-((trans-4-(4-chlorophenyl)-1-(2,2-difluoroethyl)piperidin-3-yl)methoxy)-2,5-difluoro-N-(1,2,4-thiadiazol-5-yl)benzenesulfonamide]

SMILES	IC50 [1] [nM]	IC50 ([2]; read-out: NaV1.7 (IC50 class)) [nM]	IC50 ([2]; read-out: NaV1.7 IC50) [nM]
NS(=O)(=O)c1cc(F)c(OC[C@@H]2CNCC[C@H]2c2ccc(Cl)cc2)cc1F (relative stereo) [Example 95, 4-((trans-4-(4-chlorophenyl)piperidin-3-yl)methoxy)-2,5-difluorobenzenesulfonamide]	> 10000	–	–
CC(C)NS(=O)(=O)c1ccc(OC[C@@H]2CNCC[C@H]2c2ccc(Cl)cc2)c(C#N)c1 (relative stereo) [Example 90, 4-((trans-4-(4-chlorophenyl)piperidin-3-yl)methoxy)-3-cyano-N-isopropylbenzenesulfonamide]	> 10000	–	–
